According to ChEMBL document CHEMBL4483862, “Open-source discovery of chemical leads for next-generation chemoprotective antimalarials” (2018):

Test system: Plasmodium berghei
Test: Luciferase/luciferin-expressing antifolate-resistant parasites were used to infect a culture of HepG2 cells that were pre-incubated with compounds. Infected hepatocytes emit light due to the luciferase reaction. Assay results are presented as the percent inhibition of light emission compared to control. […]
Format: functional
Conditions: sporozoite; for IC90: read-out: LUCIFERASE INFECTION ASSAY - IC90

SMILES | IC90 | other results
CC(C)CC(N)c1csc(NC(=O)Nc2ccccc2C(C)(C)C)n1 (stereo not given) | 3.05 µM | IC50 (PBLUC_HILL_SLOPE 4.98, PBLUC_R_SQUARED 0.541, read-out: LUCIFERASE INFECTION ASSAY - IC50): 1.96 µM
Brc1ccc(OCc2ccccc2)c(CNCc2ccccn2)c1 | 6.94 µM | IC50 (PBLUC_HILL_SLOPE 4.81, PBLUC_R_SQUARED 0.436, read-out: LUCIFERASE INFECTION ASSAY - IC50): 4.39 µM
CCN(CC)CCn1c(NC(=O)c2cc3c(s2)CCCC3)nc2ccccc21 | > 10 µM | IC50 (PBLUC_HILL_SLOPE 4.87, PBLUC_R_SQUARED 0.309, read-out: LUCIFERASE INFECTION ASSAY - IC50): 6.91 µM
Cc1c(N/N=C(/C(=O)Nc2ccccc2)C(=O)c2ccccc2)c(=O)n(-c2ccccc2)n1C | > 10 µM | IC50 (PBLUC_HILL_SLOPE 4.97, PBLUC_R_SQUARED 0.638, read-out: LUCIFERASE INFECTION ASSAY - IC50): 8.09 µM
CC(C)c1ccccc1NC(=O)Nc1nc(C(N)Cc2ccc(Cl)cc2)cs1 (stereo not given) | > 7.95 µM | IC50 (PBLUC_HILL_SLOPE 4.88, PBLUC_R_SQUARED 0.323, read-out: LUCIFERASE INFECTION ASSAY - IC50): 5.13 µM
NC(COCc1ccccc1)c1csc(NC(=O)Nc2ccccc2-c2ccccc2)n1 (stereo not given) | 5.31 µM | IC50 (PBLUC_HILL_SLOPE 5.09, PBLUC_R_SQUARED 0.778, read-out: LUCIFERASE INFECTION ASSAY - IC50): 3.45 µM
Cc1nn(-c2ccc(C(=O)Nc3nc(CN4CCCC4)cs3)cc2)c(C)c1Cl | 7.87 µM | IC50 (PBLUC_HILL_SLOPE 4.86, PBLUC_R_SQUARED 0.713, read-out: LUCIFERASE INFECTION ASSAY - IC50): 5.01 µM
Cc1cccc(-c2cn3c(-c4cccc(O)c4)cnc3cn2)c1C | > 10.5 µM | IC50 (PBLUC_HILL_SLOPE 4.97, PBLUC_R_SQUARED 0.533, read-out: LUCIFERASE INFECTION ASSAY - IC50): 8.4 µM
CC(C)OC(=O)c1c(NC(=O)CSc2nnc(N)[nH]2)sc2c1CCCC2 | > 10 µM | IC50 (PBLUC_HILL_SLOPE 4.93, PBLUC_R_SQUARED 0.291, read-out: LUCIFERASE INFECTION ASSAY - IC50): 7.71 µM
CN1CCN(c2ccc(-c3cn4c(-c5cccc(O)c5)cnc4cn3)cn2)CC1 | > 8.54 µM | IC50 (PBLUC_HILL_SLOPE 4.85, PBLUC_R_SQUARED 0.265, read-out: LUCIFERASE INFECTION ASSAY - IC50): 7.18 µM
COc1ccccc1C(=O)NCC#Cc1cccc(C(F)(F)F)c1 | 8.91 µM | IC50 (PBLUC_HILL_SLOPE 4.8, PBLUC_R_SQUARED 0.508, read-out: LUCIFERASE INFECTION ASSAY - IC50): 5.64 µM
COc1cc(OC)cc(-c2cn3c(-c4ccc(CO)cc4)cnc3cn2)c1 | 8.34 µM | IC50 (PBLUC_HILL_SLOPE 5.1, PBLUC_R_SQUARED 0.643, read-out: LUCIFERASE INFECTION ASSAY - IC50): 5.42 µM
O=C1C(=C(O)c2ccc(OC(F)F)cc2)Sc2ccccc21 | > 10 µM | IC50 (PBLUC_HILL_SLOPE 4.86, PBLUC_R_SQUARED 0.465, read-out: LUCIFERASE INFECTION ASSAY - IC50): 9.12 µM
CN(C)C(=O)c1ccc(-c2cc3c(Nc4cccc(C(F)(F)F)c4)nccc3n2C)cc1 | 6.54 µM | IC50 (PBLUC_HILL_SLOPE 4.75, PBLUC_R_SQUARED 0.5, read-out: LUCIFERASE INFECTION ASSAY - IC50): 4.12 µM
CCN(CC)S(=O)(=O)c1cc(C)c(C)c(NC(=O)c2cc(C3CC3)nc3onc(C)c23)c1 | 9.64 µM | IC50 (PBLUC_HILL_SLOPE 5.13, PBLUC_R_SQUARED 0.485, read-out: LUCIFERASE INFECTION ASSAY - IC50): 6.28 µM
Cc1c(C)c(C)c(S(=O)(=O)N2CCN(C(C)C(=O)NC3CC3)CC2)c(C)c1C (stereo not given) | 9.56 µM | IC50 (PBLUC_HILL_SLOPE 4.98, PBLUC_R_SQUARED 0.411, read-out: LUCIFERASE INFECTION ASSAY - IC50): 6.15 µM
Cn1nc(C(=O)N2CCc3ccccc3C2)c2c1CCC(NCCc1nc(-c3ccccc3)cs1)C2 (stereo not given) | > 6.63 µM | IC50 (PBLUC_HILL_SLOPE 5.11, PBLUC_R_SQUARED 0.298, read-out: LUCIFERASE INFECTION ASSAY - IC50): 5.56 µM
CC(C)(CNC(=O)Nc1ccccc1)SCc1ccc(Cl)cc1 | > 9.46 µM | IC50 (PBLUC_HILL_SLOPE 4.79, PBLUC_R_SQUARED 0.408, read-out: LUCIFERASE INFECTION ASSAY - IC50): 6.73 µM
CCC1CCc2sc(C(=O)NCCc3ccccn3)cc2C1 (stereo not given) | > 10 µM | IC50 (PBLUC_HILL_SLOPE 5.05, PBLUC_R_SQUARED 0.237, read-out: LUCIFERASE INFECTION ASSAY - IC50): 7.77 µM
O=C(c1cnc(Nc2cccc(C(F)(F)F)c2)[nH]1)c1ccccc1O | 7.03 µM | IC50 (PBLUC_HILL_SLOPE 5.05, PBLUC_R_SQUARED 0.685, read-out: LUCIFERASE INFECTION ASSAY - IC50): 4.55 µM

SMILES | IC90 | other results
Cc1cc(C(=O)NCC#Cc2cccc(C(F)(F)F)c2)on1 | 8.21 µM | IC50 (PBLUC_HILL_SLOPE 5.05, PBLUC_R_SQUARED 0.342, read-out: LUCIFERASE INFECTION ASSAY - IC50): 5.32 µM
CCN(CC)C(CNC(=O)c1ccc2c(c1)OCC(=O)N2)c1ccccc1Cl (stereo not given) | 8.02 µM | IC50 (PBLUC_HILL_SLOPE 4.94, PBLUC_R_SQUARED 0.519, read-out: LUCIFERASE INFECTION ASSAY - IC50): 5.14 µM
O=C1C(=O)N(CCN2CCOCC2)c2ccc(F)cc21 | > 11.9 µM | IC50 (PBLUC_HILL_SLOPE 4.75, PBLUC_R_SQUARED 0.191, read-out: LUCIFERASE INFECTION ASSAY - IC50): 10.9 µM
Cc1cc(C)n(-c2nc(-c3ccccc3)cc(N3CCOCC3)n2)n1 | 6.26 µM | IC50 (PBLUC_HILL_SLOPE 5.14, PBLUC_R_SQUARED 0.351, read-out: LUCIFERASE INFECTION ASSAY - IC50): 4.08 µM
CCNC(=O)c1nn(Cc2cccc(OC)c2)c2c1CN(CCC(C)c1ccc(C)o1)CC2 (stereo not given) | > 7.32 µM | IC50 (PBLUC_HILL_SLOPE 5.04, PBLUC_R_SQUARED 0.686, read-out: LUCIFERASE INFECTION ASSAY - IC50): 6.68 µM
Cc1cc(-n2c(C)cc(C(=O)COc3ccccc3C#N)c2C)no1 | > 10 µM | IC50 (PBLUC_HILL_SLOPE 4.77, PBLUC_R_SQUARED 0.224, read-out: LUCIFERASE INFECTION ASSAY - IC50): 7.56 µM
CCC(C)(C)C1CCc2c(sc(NC(=O)CN3CCOCC3)c2C#N)C1 (stereo not given) | 8.57 µM | IC50 (PBLUC_HILL_SLOPE 4.77, PBLUC_R_SQUARED 0.355, read-out: LUCIFERASE INFECTION ASSAY - IC50): 5.41 µM
Cn1ccnc1Sc1ncnc2sccc12 | 3.92 µM | IC50 (PBLUC_HILL_SLOPE 5.04, PBLUC_R_SQUARED 0.521, read-out: LUCIFERASE INFECTION ASSAY - IC50): 2.53 µM
Fc1ccc(Nc2ncnc3c2cnn3Cc2ccc(Cl)cc2)cc1 | 9.37 µM | IC50 (PBLUC_HILL_SLOPE 4.8, PBLUC_R_SQUARED 0.59, read-out: LUCIFERASE INFECTION ASSAY - IC50): 5.93 µM
CNC(=O)c1ccc(CN(CCOc2cccc(F)c2)C2CC2)cc1 | > 10 µM | IC50 (PBLUC_HILL_SLOPE 4.75, PBLUC_R_SQUARED 0.3, read-out: LUCIFERASE INFECTION ASSAY - IC50): 6.72 µM
O=C(NNC(=O)c1cc2c(s1)CCCCC2)c1ccccn1 | 8.35 µM | IC50 (PBLUC_HILL_SLOPE 4.79, PBLUC_R_SQUARED 0.138, read-out: LUCIFERASE INFECTION ASSAY - IC50): 5.28 µM
Cc1nn(-c2ccccc2)c(Cl)c1/C=N/OCC(=O)Nc1cccc(C(F)(F)F)c1 | 9.91 µM | IC50 (PBLUC_HILL_SLOPE 4.91, 2.77, PBLUC_R_SQUARED 0.190, 0.335, read-out: LUCIFERASE INFECTION ASSAY - IC50): 5.6 µM
Cn1ccnc1SCC(=O)Nc1ccc(C(=O)Nc2ncccc2O)cc1 | 5.1 µM | IC50 (PBLUC_HILL_SLOPE 5, PBLUC_R_SQUARED 0.401, read-out: LUCIFERASE INFECTION ASSAY - IC50): 3.28 µM
CS(=O)(=O)Nc1cccc(-c2cnc3sc(NCCOc4ccccc4)nn23)c1 | > 7.68 µM | IC50 (PBLUC_HILL_SLOPE 4.91, PBLUC_R_SQUARED 0.558, read-out: LUCIFERASE INFECTION ASSAY - IC50): 5.02 µM
CC1CCc2sc(-c3nnc(SCC(=O)Nc4sccc4C(N)=O)o3)cc2C1 (stereo not given) | 9.89 µM | IC50 (PBLUC_HILL_SLOPE 4.8, PBLUC_R_SQUARED 0.154, read-out: LUCIFERASE INFECTION ASSAY - IC50): 6.26 µM
CC(OC(=O)c1cc(-c2ccccc2)nc2c1cnn2Cc1ccccc1)C(=O)NC(C)(C)C (stereo not given) | 6.73 µM | IC50 (PBLUC_HILL_SLOPE 5.07, PBLUC_R_SQUARED 0.772, read-out: LUCIFERASE INFECTION ASSAY - IC50): 4.36 µM
CCNC(=O)c1nn(CC2CC2)c2c1CN(C(=O)c1cc(-c3ccccc3F)n[nH]1)CC2 | 4.07 µM | IC50 (PBLUC_HILL_SLOPE 5.13, PBLUC_R_SQUARED 0.551, read-out: LUCIFERASE INFECTION ASSAY - IC50): 2.65 µM
CCc1c(C)sc(NC(=O)c2c(-c3ccccc3)noc2C)c1C(=O)OC | > 8.58 µM | IC50 (PBLUC_HILL_SLOPE 4.81, PBLUC_R_SQUARED 0.194, read-out: LUCIFERASE INFECTION ASSAY - IC50): 5.61 µM
COc1cc(Nc2ccn3ncc(-c4ccc(OC(F)(F)F)cc4)c3n2)cc(OC)c1OC | 5.74 µM | IC50 (PBLUC_HILL_SLOPE 5.07, PBLUC_R_SQUARED 0.236, read-out: LUCIFERASE INFECTION ASSAY - IC50): 3.72 µM
Cc1cc(C(=O)COc2ccc(CC(=O)O)cc2)c(C)n1CCC(C)C | 7.13 µM | IC50 (PBLUC_HILL_SLOPE 4.94, 3.04, PBLUC_R_SQUARED 0.440, 0.373, read-out: LUCIFERASE INFECTION ASSAY - IC50): 5.4 µM
